Data reported in PubChem BioAssay (NCI).
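Five compound concentrations were applied to cells in 96-well plates for 48 hours; endpoints were derived by simple linear interpolation of the resulting dose-response curve. Abbreviation: GI50, concentration required for 50% inhibition of growth. TGI: concentration producing complete growth inhibition.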

Key:
Assay in all cases: DTP human tumour cell line panel, 48 h; in the data active = GI50 below about 0.43 µM; inactive = the rest
HCT-116 colon = test system: HCT-116 colon
IGROV1 ovarian = test system: IGROV1 ovarian
OVCAR-8 ovarian = test system: OVCAR-8 ovarian
M14 melanoma = test system: M14 melanoma
SK-MEL-5 melanoma = test system: SK-MEL-5 melanoma
NCI-H460 lung = test system: NCI-H460 lung
SN12C renal = test system: SN12C renal
MALME-3M melanoma = test system: MALME-3M melanoma
SF-539 CNS = test system: SF-539 CNS
HL-60(TB) leukemia = test system: HL-60(TB) leukemia
OVCAR-5 ovarian = test system: OVCAR-5 ovarian
EKVX NSCLC = test system: EKVX NSCLC
SNB-19 CNS = test system: SNB-19 CNS
SK-OV-3 ovarian = test system: SK-OV-3 ovarian
NCI-H226 lung = test system: NCI-H226 lung
SK-MEL-2 melanoma = test system: SK-MEL-2 melanoma
NCI/ADR-RES ovarian = test system: NCI/ADR-RES ovarian
KM12 colon = test system: KM12 colon
COLO 205 colon = test system: COLO 205 colon
SF-295 CNS = test system: SF-295 CNS
HOP-62 NSCLC = test system: HOP-62 NSCLC
MDA-MB-231 breast = test system: MDA-MB-231 breast
RXF 393 renal = test system: RXF 393 renal
T-47D breast = test system: T-47D breast
MCF7 breast = test system: MCF7 breast
SF-268 CNS = test system: SF-268 CNS
CAKI-1 renal = test system: CAKI-1 renal
HT29 colon = test system: HT29 colon
UACC-62 melanoma = test system: UACC-62 melanoma
A549 NSCLC = test system: A549 NSCLC
TK-10 renal = test system: TK-10 renal
SK-MEL-28 melanoma = test system: SK-MEL-28 melanoma
DU-145 prostate = test system: DU-145 prostate
UACC-257 melanoma = test system: UACC-257 melanoma
K-562 leukemia = test system: K-562 leukemia
MOLT-4 leukemia = test system: MOLT-4 leukemia
OVCAR-3 ovarian = test system: OVCAR-3 ovarian
SR leukemia = test system: SR leukemia
NCI-H522 lung = test system: NCI-H522 lung
MDA-MB-435 = test system: MDA-MB-435
ACHN renal = test system: ACHN renal
SNB-75 CNS = test system: SNB-75 CNS
NCI-H23 lung = test system: NCI-H23 lung
SW-620 colon = test system: SW-620 colon
UO-31 renal = test system: UO-31 renal
786-0 renal = test system: 786-0 renal
LOX IMVI melanoma = test system: LOX IMVI melanoma
U251 CNS = test system: U251 CNS
PC-3 prostate = test system: PC-3 prostate
HS 578T breast = test system: HS 578T breast
OVCAR-4 ovarian = test system: OVCAR-4 ovarian
HCT-15 colon = test system: HCT-15 colon
A498 renal = test system: A498 renal
HOP-92 NSCLC = test system: HOP-92 NSCLC
RPMI-8226 leukemia = test system: RPMI-8226 leukemia
HCC-2998 colon = test system: HCC-2998 colon
CCRF-CEM leukemia = test system: CCRF-CEM leukemia

OCN(CO)c1ccc2c(c1)Cc1cc(F)ccc1-2
41.9 µM: TGI (HCT-15 colon)
36.4 µM: TGI (ACHN renal)
39.3 µM: TGI (SR leukemia)
42.7 µM: TGI (MCF7 breast)
39.2 µM: TGI (TK-10 renal)
46.8 µM: TGI (OVCAR-5 ovarian)
34.8 µM: TGI (U251 CNS)
60.9 µM: TGI (M14 melanoma)
23.3 µM: TGI (SK-MEL-5 melanoma)
75.8 µM: TGI (MOLT-4 leukemia)
27.9 µM: TGI (HT29 colon)
27.4 µM: TGI (OVCAR-3 ovarian)
81.3 µM: TGI (SF-268 CNS)
52.4 µM: TGI (MALME-3M melanoma)
56.3 µM: TGI (SNB-75 CNS)
40.3 µM: TGI (NCI-H226 lung)
36.1 µM: TGI (T-47D breast)
43 µM: TGI (IGROV1 ovarian)
30.1 µM: TGI (SF-295 CNS)
51.4 µM: TGI (NCI/ADR-RES ovarian)
40.5 µM: TGI (OVCAR-8 ovarian)
38.6 µM: TGI (SN12C renal)
36.2 µM: TGI (PC-3 prostate)
45.7 µM: TGI (OVCAR-4 ovarian)
41.5 µM: TGI (EKVX NSCLC)
44 µM: TGI (SNB-19 CNS)
47.3 µM: TGI (A549 NSCLC)
25.4 µM: TGI (SW-620 colon)
45.9 µM: TGI (SK-MEL-2 melanoma)
44.6 µM: TGI (CAKI-1 renal)
32.9 µM: TGI (MDA-MB-231 breast)
> 100 µM: TGI (HCT-116 colon) | TGI (HOP-62 NSCLC) | TGI (RXF 393 renal) | TGI (786-0 renal)
50.2 µM: TGI (DU-145 prostate)
35.4 µM: TGI (KM12 colon)
88.7 µM: TGI (SK-MEL-28 melanoma)
38.1 µM: TGI (UACC-62 melanoma)
93.7 µM: TGI (NCI-H23 lung)
24.9 µM: TGI (COLO 205 colon)
59.9 µM: TGI (UO-31 renal)
37.2 µM: TGI (UACC-257 melanoma)
37.4 µM: TGI (NCI-H522 lung)
95.9 µM: TGI (SK-OV-3 ovarian)
36.8 µM: TGI (SF-539 CNS) | TGI (MDA-MB-435)
39.9 µM: TGI (K-562 leukemia)
33.9 µM: TGI (HS 578T breast)
31.7 µM: TGI (LOX IMVI melanoma)
78.4 µM: TGI (HL-60(TB) leukemia)
65.1 µM: TGI (NCI-H460 lung)

CSc1ccc(C2=NN(c3ccccc3)C(c3ccc(-c4cc(Cl)c(Cl)cc4Cl)o3)C2)cc1 (stereo not given)
> 100 µM: TGI (HCT-116 colon) | TGI (IGROV1 ovarian) | TGI (M14 melanoma) | TGI (A498 renal) | TGI (SK-MEL-5 melanoma) | TGI (NCI-H460 lung) | TGI (SN12C renal) | TGI (MALME-3M melanoma) | TGI (SF-539 CNS) | TGI (HL-60(TB) leukemia) | TGI (OVCAR-5 ovarian) | TGI (EKVX NSCLC) | TGI (SNB-19 CNS) | TGI (SK-OV-3 ovarian) | TGI (NCI-H226 lung) | TGI (SK-MEL-2 melanoma) | TGI (NCI/ADR-RES ovarian) | TGI (KM12 colon) | TGI (COLO 205 colon) | TGI (SF-295 CNS) | TGI (HOP-62 NSCLC) | TGI (MDA-MB-231 breast) | TGI (T-47D breast) | TGI (MCF7 breast) | TGI (RPMI-8226 leukemia) | TGI (SF-268 CNS) | TGI (CAKI-1 renal) | TGI (HT29 colon) | TGI (UACC-62 melanoma) | TGI (HCC-2998 colon) | TGI (A549 NSCLC) | TGI (TK-10 renal) | TGI (SK-MEL-28 melanoma) | TGI (DU-145 prostate) | TGI (K-562 leukemia) | TGI (MOLT-4 leukemia) | TGI (OVCAR-3 ovarian) | TGI (SR leukemia) | TGI (NCI-H522 lung) | TGI (MDA-MB-435) | TGI (ACHN renal) | TGI (CCRF-CEM leukemia) | TGI (NCI-H23 lung) | TGI (SW-620 colon) | TGI (UO-31 renal) | TGI (786-0 renal) | TGI (LOX IMVI melanoma) | TGI (U251 CNS) | TGI (PC-3 prostate) | TGI (HS 578T breast) | TGI (OVCAR-4 ovarian) | TGI (HCT-15 colon)
inactive: GI50 (HCT-116 colon) > 100 µM | GI50 (IGROV1 ovarian) > 100 µM | GI50 (M14 melanoma) > 100 µM | GI50 (A498 renal) > 100 µM | GI50 (SK-MEL-5 melanoma) > 100 µM | GI50 (NCI-H460 lung) 89.3 µM | GI50 (SN12C renal) > 100 µM | GI50 (MALME-3M melanoma) > 100 µM | GI50 (SF-539 CNS) 63.2 µM | GI50 (HL-60(TB) leukemia) > 100 µM | GI50 (OVCAR-5 ovarian) > 100 µM | GI50 (EKVX NSCLC) > 100 µM | GI50 (SNB-19 CNS) 64.3 µM | GI50 (SK-OV-3 ovarian) 35.8 µM | GI50 (NCI-H226 lung) > 100 µM | GI50 (HOP-92 NSCLC) 21 µM | GI50 (SK-MEL-2 melanoma) > 100 µM | GI50 (NCI/ADR-RES ovarian) > 100 µM | GI50 (KM12 colon) > 100 µM | GI50 (COLO 205 colon) > 100 µM | GI50 (SF-295 CNS) 54.7 µM | GI50 (HOP-62 NSCLC) 12.3 µM | GI50 (MDA-MB-231 breast) > 100 µM | GI50 (T-47D breast) > 100 µM | GI50 (MCF7 breast) > 100 µM | GI50 (RPMI-8226 leukemia) > 100 µM | GI50 (SF-268 CNS) 87.1 µM | GI50 (CAKI-1 renal) > 100 µM | GI50 (HT29 colon) > 100 µM | GI50 (UACC-62 melanoma) 78.8 µM | GI50 (HCC-2998 colon) > 100 µM | GI50 (A549 NSCLC) > 100 µM | GI50 (TK-10 renal) > 100 µM | GI50 (SK-MEL-28 melanoma) > 100 µM | GI50 (DU-145 prostate) > 100 µM | GI50 (K-562 leukemia) > 100 µM | GI50 (MOLT-4 leukemia) > 100 µM | GI50 (OVCAR-3 ovarian) > 100 µM | GI50 (SR leukemia) > 100 µM | GI50 (NCI-H522 lung) > 100 µM | GI50 (MDA-MB-435) > 100 µM | GI50 (ACHN renal) > 100 µM | GI50 (SNB-75 CNS) 27.5 µM | GI50 (CCRF-CEM leukemia) > 100 µM | GI50 (NCI-H23 lung) > 100 µM | GI50 (SW-620 colon) > 100 µM | GI50 (UO-31 renal) > 100 µM | GI50 (786-0 renal) > 100 µM | GI50 (LOX IMVI melanoma) > 100 µM | GI50 (U251 CNS) 89.2 µM | GI50 (PC-3 prostate) 63.1 µM | GI50 (HS 578T breast) 46.3 µM | GI50 (OVCAR-4 ovarian) > 100 µM | GI50 (HCT-15 colon) > 100 µM
52.1 µM: TGI (HOP-92 NSCLC)
85.7 µM: TGI (SNB-75 CNS)
